The text below walks through data of patent publication US12233161B1, “Lipids and lipid nanoparticle formulations” (LONGUIDE BIOPHARMA CORPORATION, priority 2024, dated 2025).

One data set deals with mice. The data set can be described thus: In vivo delivery of FLuc-mRNA lipid nanoparticles in mice, in vivo imaging (IVIS). The essentials:
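Mice (n=3) received about 75 μL FLuc-mRNA LNP per mouse intramuscularly (rectus femoris), intravenously (tail vein), intraperitoneally or subcutaneously (back). After injection, D-luciferin (200 μL, 15 mg/mL) was given i.p. 10-15 min before IVIS imaging.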

The nature of data set [1]: Particle size and PDI of nucleic acid lipid nanoparticle preparations by dynamic light scattering. It is filed as physicochemical. How it is done: The 7.5 μL nucleic acid lipid nanoparticle solution (containing approximately 0.04 mg/mL mRNA) was taken and added with 200 μL ultrapure water, mixed by gentle blowing using a pipette tip, and the particle size of the nanopreparation was detected by dynamic lightscattering (DLS) using a Malvern Dynamic Light Scattering Instrument (Malvern Instruments Ltd., ZEN3700, UK).
27.5 μL nucleic acid lipid nanoparticle solution (containing about 0.04 mg/mL mRNA) was taken and added with 200 μL ultrapure water. A pipette tip was used to gently blow the sample and mix well. The particle size of the nanopreparation was detected by Malvern Dynamic Light Scattering Instrument (Malvern Instruments Ltd., ZEN3700, UK). After the detection, the sample was recovered to an EP tube, and 600 μL of ultrapure water was added, gently blown with a pipette tip, and the potential of the nanopreparation was measured by a Malvern particle size meter.

[2] abbreviates: IM, DMG-PEG2000:DSPC:Chol:compound 1.40:11.15:38.95:48.50, N/P 20, Fluc-mRNA.
Setting [3] is: IV, organ not given, DMG-PEG2000:DSPC:Chol:compound 1.40:11.15:38.95:48.50, N/P 20, Fluc-mRNA.
Setting [4] is: DMG-PEG2000:DSPC:Chol:compound 1.40:11.15:38.95:48.50, N/P 20.
[5] abbreviates: DMG-PEG2000:DSPC:Chol:Lipid 1.40:11.15:38.95:48.50, N/P 60, mRNA LNP.
The mark [6] stands for this setting: DMG-PEG2000:DSPC:Chol:Lipid 1.77:14.07:49.16:35.00, N/P 60, mRNA LNP.
Setting [7] is: DMG-PEG2000:DSPC:Chol:Lipid 1.09:8.66:30.25:60.00, N/P 13.3, mRNA LNP.
The mark [8] stands for this setting: DMG-PEG2000:DSPC:Chol:Lipid 1.40:11.15:38.95:48.50, N/P 13.3, mRNA LNP.
Setting [9] is: DMG-PEG2000:DSPC:Chol:Lipid 1.40:11.15:38.95:48.50, N/P 16.7, mRNA LNP.
Setting [10] is: IM, DMG-PEG2000:DSPC:Chol:compound 1.40:11.15:38.95:48.50, N/P 30, Fluc-mRNA.
Where [11] appears, read: DMG-PEG2000:DSPC:Chol:compound 1.40:11.15:38.95:48.50, N/P 30.
Setting [12] is: DMG-PEG2000:DSPC:Chol:Lipid 1.40:11.15:38.95:48.50, N/P 30, mRNA LNP.
The mark [13] stands for this setting: DMG-PEG2000:DSPC:Chol:Lipid 1.40:11.15:38.95:48.50, N/P 18, mRNA LNP.

With `CCCCCCCCCCNC(=O)C(O)CN(CCOCCN(CC(O)C(=O)NCCCCCCCCCC)CC(O)C(=O)NCCCCCCCCCC)CC(O)C(=O)NCCCCCCCCCC` (stereo not shown) [Compound L0326], in the data set on mice (setting [2]), the IVIS came to 6.75E+05. This compound also showed an IVIS in the data set on mice (setting [3]) of 1.02E+06. In data set [1] (setting [4]), the PDI came out at 0.14 and the “Particle size (nm)” value was found to be 103.37 nm.
In the case of `CCCCCCCCCCCCOC(=O)C(O)CN(CCOCCOCCN(CC(O)C(=O)OCCCCCCCCCCCC)CC(O)C(=O)OCCCCCCCCCCCC)CC(O)C(=O)OCCCCCCCCCCCC` (stereo not shown) [Compound L0309], the IVIS in the data set with mice (setting [2]) was found to be 3.09E+06; with mice (IV, body, DMG-PEG2000:DSPC:Chol:compound 1.40:11.15:38.95:48.50, N/P 20, Fluc-mRNA), 1.24E+06; in the data set on mice (IV, liver, DMG-PEG2000:DSPC:Chol:compound 1.40:11.15:38.95:48.50, N/P 20, Fluc-mRNA), 5.48E+05; with mice (IV, lung, DMG-PEG2000:DSPC:Chol:compound 1.40:11.15:38.95:48.50, N/P 20, Fluc-mRNA), 8.60E+04; with mice (IV, spleen, DMG-PEG2000:DSPC:Chol:compound 1.40:11.15:38.95:48.50, N/P 20, Fluc-mRNA), 1.91E+06. Further, the “% of organ targeting” value in the data set with mice (IV, liver, DMG-PEG2000:DSPC:Chol:compound 1.40:11.15:38.95:48.50, N/P 20) is recorded as 21.49%; in the data set with mice (IV, lung, DMG-PEG2000:DSPC:Chol:compound 1.40:11.15:38.95:48.50, N/P 20), 3.37%; in the data set on mice (IV, spleen, DMG-PEG2000:DSPC:Chol:compound 1.40:11.15:38.95:48.50, N/P 20), 75.14%. Besides, in data set [1] (setting [4]), the PDI amounted to 0.11. Further, the “Particle size (nm)” value in data set [1] (setting [4]) is 180.63 nm.
In the case of `CCCCCCCCCCNC(=O)C(O)CN(CCCN(CC(O)C(=O)NCCCCCCCCCC)CC(O)C(=O)NCCCCCCCCCC)CCCN(CC(O)C(=O)NCCCCCCCCCC)CC(O)C(=O)NCCCCCCCCCC` (stereo not shown) [Compound L0268], the IVIS with mice (DMG-PEG2000:DSPC:Chol:Lipid 1.40:11.15:38.95:48.50, N/P 60, IV, whole body scan) was 3.80 × 10^5; with mice (DMG-PEG2000:DSPC:Chol:Lipid 1.77:14.07:49.16:35.00, N/P 60, IM, whole body scan), 5.86 × 10^5. Also, the values for the PDI in data set [1] (setting [5]) and in data set [1] (setting [6]) were 0.07 ± 0.01 and 0.08 ± 0.01, respectively. The Particle size stood at 116.83 ± 1.07 nm in data set [1] (setting [5]) and 95.36 ± 0.61 nm in data set [1] (setting [6]).
`CCCCCCCCCCCCNC(=O)C(O)CN(CCCCCN(CC(O)C(=O)NCCCCCCCCCCCC)CC(O)C(=O)NCCCCCCCCCCCC)CC(O)C(=O)NCCCCCCCCCCCC` (stereo not shown) [Compound L0307] came in with an IVIS in the data set with mice (setting [2]) of 1.43E+05. The compound also displayed an IVIS with mice (setting [3]) of 4.29E+05. Besides, in data set [1] (setting [4]), the PDI is recorded as 0.25 and the “Particle size (nm)” value is recorded as 178.57 nm.
With `CCCCCCOCOCCCCCCOC(=O)C(O)CN(CCCN(C)CCCN(CC(O)C(=O)OCCCCCCOCOCCCCCC)CC(O)C(=O)OCCCCCCOCOCCCCCC)CC(O)C(=O)OCCCCCCOCOCCCCCC` (stereo not shown) [Compound L0271], the IVIS in the data set on mice (DMG-PEG2000:DSPC:Chol:Lipid 1.09:8.66:30.25:60.00, N/P 13.3, IM, whole body scan) was 3.27 × 10^6; in the data set on mice (DMG-PEG2000:DSPC:Chol:Lipid 1.40:11.15:38.95:48.50, N/P 13.3, IV, whole body scan), 4.16 × 10^8. The PDI in data set [1] (setting [7]) was determined as 0.06 ± 0.01; in data set [1] (setting [8]) it was 0.04 ± 0.03. In addition, the values for the Particle size in data set [1] (setting [7]) and in data set [1] (setting [8]) were 145.73 ± 2.21 nm and 124.63 ± 0.70 nm, respectively.
Take `CCCCCCOCOCCCCCCOC(=O)C(O)CN(CCN(C)CCN(CC(O)C(=O)OCCCCCCOCOCCCCCC)CC(O)C(=O)OCCCCCCOCOCCCCCC)CC(O)C(=O)OCCCCCCOCOCCCCCC` (stereo not shown) [Compound L0272]: in the data set on mice (DMG-PEG2000:DSPC:Chol:Lipid 1.40:11.15:38.95:48.50, N/P 16.7, IM, whole body scan), the IVIS is reported as 9.96 × 10^7. In the data set with mice (DMG-PEG2000:DSPC:Chol:Lipid 1.40:11.15:38.95:48.50, N/P 16.7, IV, whole body scan), the IVIS is on record as 9.45 × 10^8. Besides, the “in vivo delivery efficiency as compared to the benchmark compound SM102” value in the data set on mice (certain formulations, Table 2) is on record as “superior in vivo delivery efficiency”. In data set [1] (setting [9]), this compound yielded a PDI of 0.09 ± 0.02 and a Particle size of 137.20 ± 0.61 nm.
With `CCCCCCCCC(CCCCCC)C(=O)OCCCCOC(=O)C(O)CN(CCN(C)CCN(CC(O)C(=O)OCCCCOC(=O)C(CCCCCC)CCCCCCCC)CC(O)C(=O)OCCCCOC(=O)C(CCCCCC)CCCCCCCC)CC(O)C(=O)OCCCCOC(=O)C(CCCCCC)CCCCCCCC` (stereo not shown) [Compound L0298], the IVIS with mice (setting [10]) stood at 5.25E+07; in the data set on mice (IV, body, DMG-PEG2000:DSPC:Chol:compound 1.40:11.15:38.95:48.50, N/P 30, Fluc-mRNA) it was 1.30E+08; with mice (IV, liver, DMG-PEG2000:DSPC:Chol:compound 1.40:11.15:38.95:48.50, N/P 30, Fluc-mRNA), 3.03E+07; in the data set with mice (IV, lung, DMG-PEG2000:DSPC:Chol:compound 1.40:11.15:38.95:48.50, N/P 30, Fluc-mRNA), 4.23E+06; in the data set with mice (IV, spleen, DMG-PEG2000:DSPC:Chol:compound 1.40:11.15:38.95:48.50, N/P 30, Fluc-mRNA), 4.21E+07. Also, the “% of organ targeting” value with mice (IV, liver, DMG-PEG2000:DSPC:Chol:compound 1.40:11.15:38.95:48.50, N/P 30) is recorded as 39.52%; in the data set on mice (IV, lung, DMG-PEG2000:DSPC:Chol:compound 1.40:11.15:38.95:48.50, N/P 30), 5.53%; in the data set on mice (IV, spleen, DMG-PEG2000:DSPC:Chol:compound 1.40:11.15:38.95:48.50, N/P 30), 54.95%. The compound further displayed a PDI in data set [1] (setting [11]) of 0.11. In addition, the “Particle size (nm)” value in data set [1] (setting [11]) amounted to 91.43 nm.
In turn, `CCCCCCCC/C=C\CCCCCCCCNC(=O)C(O)CN(C)CCN(C)CCN(C)CC(O)C(=O)NCCCCCCCC/C=C\CCCCCCCC` (stereo not shown) [Compound L0296] yielded an IVIS with mice (setting [2]) of 2.80E+05. The compound also returned an IVIS with mice (setting [3]) of 2.97E+05. In data set [1] (setting [4]), the PDI turned out to be 0.16 and the “Particle size (nm)” value is recorded as 81.09 nm.
As for `CCCCCCCCCCCCNCC(O)CN(CCN(CCN(CC(O)CNCCCCCCCCCCCC)CC(O)C(=O)NCCCCCCCCCCCC)CC(O)C(=O)NCCCCCCCCCCCC)CC(O)C(=O)NCCCCCCCCCCCC` (stereo not shown) [Compound L0332], the IVIS with mice (setting [10]) amounted to 7.75E+05; in the data set with mice (IV, organ not given, DMG-PEG2000:DSPC:Chol:compound 1.40:11.15:38.95:48.50, N/P 30, Fluc-mRNA), 3.67E+05. Also, the PDI in data set [1] (setting [11]) came to 0.18. For the same compound, the “Particle size (nm)” value in data set [1] (setting [11]) is recorded as 150.70 nm.
In the case of `CCCCCCC(CCCCCC)C(=O)OCCCCCCOC(=O)C(O)CN(C)CCN(C)CCN(C)CC(O)C(=O)OCCCCCCOC(=O)C(CCCCCC)CCCCCC` (stereo not shown) [Compound L0286], the IVIS in the data set with mice (DMG-PEG2000:DSPC:Chol:Lipid 1.40:11.15:38.95:48.50, N/P 30, IM, whole body scan) is 3.05 × 10^3. For the same compound, the IVIS with mice (DMG-PEG2000:DSPC:Chol:Lipid 1.40:11.15:38.95:48.50, N/P 30, IV, body (whole body scan)) is 4.41 × 10^6. In data set [1] (setting [12]), the PDI is 0.16 ± 0.04 and the Particle size turned out to be 136.97 ± 0.92 nm.
Consider `CCCCCCCCCCNC(=O)C(O)CN(C)CCN(C)CCN(C)CC(O)C(=O)NCCCCCCCCCC` (stereo not shown) [Compound L0277], for which the IVIS in the data set on mice (DMG-PEG2000:DSPC:Chol:Lipid 1.40:11.15:38.95:48.50, N/P 18, IM, whole body scan) is 2.60 × 10^5. Moreover, the IVIS in the data set with mice (DMG-PEG2000:DSPC:Chol:Lipid 1.40:11.15:38.95:48.50, N/P 18, IV, whole body scan) is recorded as 4.28 × 10^5. In data set [1] (setting [13]), this compound yielded a PDI of 0.21 ± 0.00 and a Particle size of 99.36 ± 2.16 nm.
